These results are taken from patent US20110301142A1, “ANTAGONISTS OF LYSOPHOSPHATIDIC ACID RECEPTORS” (priority 2008, published 2011).

One assay addresses T1, human LPA1 (Homo sapiens, UniProt Q92633).
T1 construct: the full-length cDNA for human LPA1 was obtained by PCR of the reverse transcription reaction; expressed in transfected cells
In words: LPA1 calcium flux assay (HLPA1 Ca Flux). The class given is cell-based. The note with it: Human LPA1 expressing CHO cells, stimulated with 10 nM LPA. The method in brief: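 CHO cells stably expressing cloned human LPA1, serum-starved overnight and loaded with Calcium 4 dye, were preincubated 30 min at room temperature with compound. Cells were then challenged with 10 nM LPA and intracellular Ca2+ measured; IC50 values came from titration curves.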
On the technique in general: Calcium assays in cells follow changes in intracellular calcium, usually with a dye or a luminescent sensor.

In assay [1] the test system is A2058 human melanoma cells. In words: LPA1 chemotaxis assay. The class given is cell-based. The note with it: 100 nM LPA, read-out: IC50, inhibition of LPA-driven chemotaxis. The procedure: Chemotaxis of the A2058 human melanoma cells was measured using the Neuroprobe ChemoTx® System plates (8 μm pore size, 5.7 mm diameter sites). The filter sites were coated with 0.001% fibronectin (Sigma) in 20 mM Hepes, pH 7.4 and allowed to dry. A2058 cells were serum-starved for 24 hours, then harvested with Cell Stripper and resuspended in DMEM containing 0.1% fatty-acid-free bovine serum albumin (BSA) to a concentration of 1×10^6/ml. Cells were mixed with an equal volume of test compound (2×) in DMEM containing 0.1% fatty-acid-free BSA and incubated at 37° C. for 15 minutes. LPA (100 nM in DMEM containing 0.1% fatty-acid-free BSA) or vehicle was added to each well of the lower chamber and 50 μl of the cell suspension/test compound mix was applied to the upper portion of the ChemoTx plate. Plates were incubated at 37° C. for three hours and then the cells removed from the upper portion by rinsing with PBS and scraping. The filter was dried then stained with HEMA 3 Staining System (Fisher Scientific). The absorbance of the filter was read at 590 nm and IC50s were determined using Symyx Assay Explorer.

Another assay deals with Female C57BL/6 mice. In words: Mouse unilateral ureteral obstruction kidney fibrosis model. The class given is in vivo. The method, then:
Female C57BL/6 mice (Harlan, 20-25 g) housed 4/cage will be given free access to food and water and allowed to acclimate for at least 7 days prior to test initiation. After the habituation phase, mice undergo unilateral ureteral obstruction (UUO) surgery or sham to left kidney. Briefly, a longitudinal, upper left incision is performed to expose the left kidney. The renal artery is located and 6/0 silk thread is passed between the artery and the ureter. The thread is looped around the ureter and knotted 3 times insuring full ligation of ureter. The kidney is returned to abdomen, the abdominal muscle is sutured and the skin is stapled closed. Mice are returned to their cages and monitored daily for the duration of the experiment. Test compound or vehicle is delivered po, ip or sc daily. The route and frequency of dosing is based on previously determined pharmacokinetic properties. All animals are sacrificed using inhaled isoflurane 4, 8 or 14 days after UUO surgery. […] Kidney tissue homogenates are analyzed for collagen levels using Sircol (Biocolor Ltd, UK). Fixed kidney tissue is also stained using hematoxylin and eosin (H&E) and trichrome and kidney fibrosis is determined by quantitative, computer-assisted densitometry of collagen in […] tissue sections using light microscopy. […] The resulting data are plotted using Graphpad prism and statistical differences between groups determined.

A word on the IC50: it is the midpoint of a concentration-inhibition curve.

Some results are limits rather than exact numbers.

T1 sequence (Q92633 whole entry): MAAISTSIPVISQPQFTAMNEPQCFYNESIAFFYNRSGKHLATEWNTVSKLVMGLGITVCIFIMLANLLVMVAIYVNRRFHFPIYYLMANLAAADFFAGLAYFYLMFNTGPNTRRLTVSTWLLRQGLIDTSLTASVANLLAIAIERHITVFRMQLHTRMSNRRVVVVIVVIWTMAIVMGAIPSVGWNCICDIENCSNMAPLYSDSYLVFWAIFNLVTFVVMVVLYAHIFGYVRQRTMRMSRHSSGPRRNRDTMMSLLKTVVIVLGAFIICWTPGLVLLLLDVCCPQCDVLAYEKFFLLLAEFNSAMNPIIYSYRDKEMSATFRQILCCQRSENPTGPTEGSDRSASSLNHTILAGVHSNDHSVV

For the compound `Cc1noc(-c2ccc(-c3ccc(CC(=O)O)cc3)cc2)c1NC(=O)O[C@H](C)c1ccccc1Cl` [Compound 1-88, (4′-{4-[(R)-1-(2-Chloro-phenyl)-ethoxycarbonylamino]-3-methyl-isoxazol-5-yl}-biphenyl-4-yl)-acetic acid], the IC50 (at human LPA1; in assay [1]) was less than 300 nM each time. In addition, the “reduction of kidney fibrosis as compared to the untreated group” value in the assay with Female C57BL/6 mice is “at least 20%”.

With `Cc1noc(-c2ccc(-c3ccc(CC(=O)O)cc3)cc2)c1NC(=O)O[C@H](C)c1ccccc1` [Compound 1-115], the IC50 (at human LPA1; in assay [1]) was less than 300 nM throughout. The “reduction of kidney fibrosis as compared to the untreated group” value with Female C57BL/6 mice is reported as 55%.
